US4883801A, “Xanthine derivative pest control agents” (priority 1986, dated 1989)
“And” between values parts separate entries of the source, which are not always exact repeats. Equal values may be shown once.

Legend:
[1] = Tissue level of theophylline in larvae after feeding on sprayed leaves (immunoenzymatic assay); type: in vivo, Manduca sexta; conditions: 1% spray, three days of feeding; mean ± deviation, two groups of six pooled animals; 4320 min; read-out: internal theophylline concentration of larvae
Experimental: To determine if the dosage of xanthine derivatives described in experiments 4, 7 and 8-11 and ingested by the larvae (causing pestistatic and pesticidal activity in vivo) were actually absorbed by the animals and were sufficient to inhibit PDE in vitro, additional experiments were carried out in order to estimate tissue levels of xanthine derivative following three days of feeding on various doses of the derivative. Groups of six larvae were placed on leaves treated with vehicle or theophylline spray. After three days, leaf area was recorded and larvae (alive or dead) were rinsed to remove any compound adhering to their cuticle, homogenized whole, centrifuged, and the cell-free supernatant assayed for theophylline content by immunoenzymatic assay (Emit-AAD theophylline assay (Syva Company, Palo Alto, CA.)). […] From mammalian studies, it is known that theophylline penetrates freely into all body compartments (Rall, T. W., supra.). […] This observation tends to rule out the hypothesis wherein adenosine receptors are involved as a mechanism for the antifeeding effects of the xanthine derivatives, since, in vertebrates, xanthine derivatives such as theophylline are competitive adenosine receptor antagonists, but exert such antagonism at much lower concentrations, typically 1-25 micromoles. […]

[2] = tested on: Manduca sexta (tobacco hornworm) larvae; assay: Antifeeding test: tomato leaves sprayed with compound, tobacco hornworm larvae; type: in vivo
[3] = tested on: hornworm nerve cord PDE (cyclic AMP phosphodiesterase); assay: Inhibition of cyclic AMP phosphodiesterase activity in homogenates of tobacco hornworm nerve cord; type: biochemical, Manduca sexta; conditions: for activity of structurally similar compounds tested as described in Example 46: Example 47
Experimental: Nerve cord was dissected from 40-60 mm long M. sexta larvae, cleaned, and homogenized (2 mg/ml) in 6 Mm Tris-maleate, pH 7.4. PDE activity was measured (4 min. incubation at 30° C.) in an assay system (0.1 ml) containing 80 mM Tris-maleate, pH 7.4; 6 mM Mg--SO4; 10^-7 M^3 H-cyclic AMP; and tissue homogenate (0.02 ml). Nerve cord was evaluated in the presence and the absence of the xanthine derivative. For purposes of the evaluation, the rate of formation of ^3 H-5' AMP was measured using the technique described in Filburn, C. […] The values shown in FIG. 1D are the mean (±SEM) of three separate experiments.

[4] = tested on: light organ octopamine-stimulated adenylate cyclase; conditions: cited from earlier work
[5] = tested on: Callosobrucaus chinensis; conditions: concentration of 1.5%; cited from earlier work
[6] = tested on: adenosine receptor; conditions: Bruns et al.; cited from earlier work
[7] = tested on: larvae of Manduca sexta (tobacco hornworm); assay: Feeding on artificial media containing the test material; type: in vivo; conditions: concentrations found naturally in undried tea leaves or coffee beans
Experimental: Various concentrations of finely powdered tea leaves or powdered coffee beans were mixed in artificial media which was then plated out in small petri dishes and allowed to harden. […] At concentrations greater than 10% (for coffee) or 3% (for tea), larvae were killed within 24 hours.
The larvae of Manduca sexta were fed on either artificial or natural food. When added to artificial media, caffeine (the major methylxanthine found in tea and coffee) exerted behavioral effects that were qualitatively similar to those of the tea and coffee described above. […] Further, the dried tea leaves, which contain 2-3 times the caffeine content of dried coffee beans, were about 2-3 times as effective as coffee beans in inhibiting weight gain. Further, the concentrations of caffeine which are found naturally in undried tea leaves (0.68-2.1%) or coffee beans (0.8-1.8%) were sufficient to kill most Manduca larvae. Thus, caffeine functions as an endogenous insecticide.

Row | SMILES | concentration [1] | inhibition of leaf consumption ([2]; 1% spray, three days) | Vmax (percent inhibition of feeding at the highest dose used) ([2]; highest dose usually a 3% spray solution) | EC50 (spray concentration required to cause 50% inhibition of feeding) ([2]; spray on tomato leaves, calculated from dose-response curves, Manduca sexta 6 per leaf) | activity of structurally similar compounds tested as described in Example 46 [3] | inhibition of hornworm nerve cord PDE activity in vitro ([3]; at the internal concentration found (4.1 mM)) | potency as partial agonist relative to octopamine [4] | EC50 (spray concentration required to cause 50% inhibition of feeding) ([2]; in vivo) | Vmax (percent inhibition of feeding at the highest dose used) ([2]; in vivo) | antifeeding effect (in words) ([2]; in vivo) | sterility [5] | PDE inhibition (in words) ([3]; FIG. 1D) | weaker than theophylline as an adenosine antagonist [6] | concentrations sufficient to kill most Manduca larvae [7]
1 | Cn1c(=O)c2[nH]cnc2n(C)c1=O [Example 15, 1,3-dimethyl-xanthine (theophylline), reference compound] | 4100 ± 1100 µM | about 50% | 94% | 1.5 % (gm/100 ml) | active | > 80% |  |  |  |  |  |  |  | 
2 | CNC=Nc1ccc(Cl)cc1C [DCDM, N-demethylchlordimeform] |  |  |  |  |  |  | about six-fold more potent than octopamine |  |  |  |  |  |  | 
3 | Cn1c(=O)c2c(ncn2C)n(C)c1=O [Example 23, 1,3,7-trimethyl-xanthine (caffeine)] |  |  |  |  | active |  |  | 0.3 | 98 | somewhat more potent than theophylline | ~100% | about equally potent | 10 fold | 0.68-2.1% and 0.8-1.8%
